The structures appear in SMILES notation. Converted amounts (≈) assume the structure as drawn.

These results are taken from patent US10858360B2, “Tricyclic gyrase inhibitors” (priority 2011, dated 2020).

For one experiment, the system named is S. aureus ATCC 13709. The experiment in a line: MIC, S. aureus ATCC 13709 (Alamar Blue broth microdilution). The class given is cell-based. The following applies: Alamar Blue read after overnight incubation at 35° C.; for MIC Sa: S. aureus; for MIC: Staphylococcus aureus, ATCC13709, S. aureus. (Alamar Blue is a resazurin reagent that responds to reducing activity.)

For a further experiment, the system named is E. coli ATCC 25922. The experiment in a line: MIC, E. coli ATCC 25922. The class given is cell-based. The following applies: Alamar Blue read after overnight incubation at 35° C.; for MIC Ec: E. coli; for MIC: Escherichia coli, ATCC25922, E. coli.

In the case of `CCOC1CN(c2nc(Oc3cnc(C)nc3)nc3[nH]c4c(NC)cc(F)cc4c23)CC1N` (mixture of isomers) [4.147], the “MIC Sa” value in the experiment on S. aureus ATCC 13709 is at most 0.5 µg/mL. The “MIC Ec” value in the experiment with E. coli ATCC 25922 worked out at 1 µg/mL.

As for `CNc1cc(F)cc2c1[nH]c1nc(Oc3cncc(-c4nnnn4C)c3)nc(N3CC4CC(N)C4C3)c12` (mixture of isomers) [4.171], the “MIC Sa” value in the experiment on S. aureus ATCC 13709 is at most 0.5 µg/mL. Moreover, in the experiment on E. coli ATCC 25922, the “MIC Ec” value was 4 µg/mL. The corresponding values for `CNc1cc(F)cc2c1[nH]c1nc(Oc3cnc(N)nc3)nc(N3CCC4(CC4N)C3)c12` (mixture of isomers) [4.174] are at most 0.5 µg/mL and at most 0.5 µg/mL. On to `CNc1cc(F)cc2c1[nH]c1nc(Oc3cnc(N)nc3)nc(N3CC4C(N)CC4(C)C3)c12` (mixture of isomers) [4.192], for which, in the experiment on S. aureus ATCC 13709, the “MIC Sa” value was at most 0.5 µg/mL. Further, the “MIC Ec” value with E. coli ATCC 25922 came out at 4 µg/mL. One may read the MIC as the least concentration at which growth counts as inhibited. `NC1C2CN(c3nc(Sc4cnc5cccnc5c4)nc4[nH]c5c(NC6CC6)cc(F)cc5c34)CC12` (centres unmarked) [1.1]: the MIC came out at 4 µg/mL (≈ 8.02 µM) with S. aureus ATCC 13709 and 64 µg/mL (≈ 128 µM) in the experiment on E. coli ATCC 25922. The corresponding values for `NC1CN(c2nc(Sc3cnc4ccc[n+]([O-])c4c3)nc3[nH]c4c(NC5CC5)cc(F)cc4c23)CC12CC2` (centres unmarked) [1.2] are 32 µg/mL (≈ 60.5 µM) and over 64 µg/mL.

`NC1C2CN(c3nc(Sc4cnc5ccc[n+]([O-])c5c4)nc4[nH]c5c(Cl)cccc5c34)CC12` (centres unmarked) [1.3]: the MIC against S. aureus ATCC 13709 is 32 µg/mL (≈ 67.2 µM); with E. coli ATCC 25922 it was over 64 µg/mL. The corresponding values for `N[C@@H]1CCN(c2nc(Sc3cnc4ccc[n+]([O-])c4c3)nc3[nH]c4c(Cl)cccc4c23)C1` [1.4] are 32 µg/mL (≈ 69 µM) and 64 µg/mL (≈ 138 µM). As for `NC1CN(c2nc(Sc3cnc4nccnc4c3)nc3[nH]c4ccccc4c23)C1` [1.5], the MIC against S. aureus ATCC 13709 and in the experiment with E. coli ATCC 25922 was over 64 µg/mL throughout. For the compound `NC1CCN(c2nc(Sc3cnc4nccnc4c3)nc3[nH]c4ccccc4c23)C1` (centres unmarked) [1.6], the minimum inhibitory concentration (MIC) with S. aureus ATCC 13709 is 32 µg/mL (≈ 77.2 µM); in the experiment on E. coli ATCC 25922, over 64 µg/mL. The corresponding values for `Cc1cccc2c1[nH]c1nc(Sc3cnc4nccnc4c3)nc(N3CC4C(N)C4C3)c12` (centres unmarked) [1.7] are 4 µg/mL (≈ 9.08 µM) and over 32 µg/mL.

As to `Nc1cccc2c1[nH]c1nc(Sc3cnc4ccc[n+]([O-])c4c3)nc(N3CC4C(N)C4C3)c12` (centres unmarked) [1.8], the MIC in the experiment on S. aureus ATCC 13709 was 64 µg/mL (≈ 140 µM); against E. coli ATCC 25922 it was over 64 µg/mL.

On to `Nc1cccc2c1[nH]c1nc(Sc3cnc4cccnc4c3)nc(N3CC4C(N)C4C3)c12` (centres unmarked) [1.9], for which the MIC in the experiment on S. aureus ATCC 13709 is 64 µg/mL (≈ 145 µM); with E. coli ATCC 25922 it was over 64 µg/mL.

Take `CCNc1cccc2c1[nH]c1nc(Sc3cnc4ccc[n+]([O-])c4c3)nc(N3CC4C(N)C4C3)c12` (centres unmarked) [1.10]: the MIC against S. aureus ATCC 13709 was at most 0.5 µg/mL; against E. coli ATCC 25922, 4 µg/mL (≈ 8.25 µM). On to `CCNc1cccc2c1[nH]c1nc(Sc3cnc4cccnc4c3)nc(N3CC4C(N)C4C3)c12` (centres unmarked) [1.11], for which the MIC is at most 0.5 µg/mL with S. aureus ATCC 13709 and 8 µg/mL (≈ 17.1 µM) against E. coli ATCC 25922. Take `CNc1cccc2c1[nH]c1nc(Sc3cnc4cccnc4c3)nc(N3CC4C(N)C4C3)c12` (centres unmarked) [1.12]: the figures for the MIC against S. aureus ATCC 13709 and with E. coli ATCC 25922 were at most 0.5 µg/mL and 1 µg/mL (≈ 2.2 µM), respectively.

On to `CNc1cccc2c1[nH]c1nc(Sc3cnc4ccc[n+]([O-])c4c3)nc(N3CC4C(N)C4C3)c12` (centres unmarked) [1.13], for which, in the experiment on S. aureus ATCC 13709, the “MIC Sa” value was at most 0.5 µg/mL. Besides, the minimum inhibitory concentration (MIC) with E. coli ATCC 25922 is at most 0.5 µg/mL. As to `CNc1cccc2c1[nH]c1nc(Sc3cnc4ccc[n+]([O-])c4c3)nc(N3CC[C@H](N)C3)c12` [1.14], the MIC against S. aureus ATCC 13709 is at most 0.5 µg/mL; against E. coli ATCC 25922, 1 µg/mL (≈ 2.18 µM). The corresponding values for `CNc1cccc2c1[nH]c1nc(Sc3cnc4nccnc4c3)nc(N3CC[C@H](N)C3)c12` [1.15] are 1 µg/mL (≈ 2.25 µM) and 2 µg/mL (≈ 4.51 µM). The corresponding values for `CNc1cccc2c1[nH]c1nc(Sc3cnc4nccnc4c3)nc(N3CC4C(N)C4C3)c12` (centres unmarked) [1.16] are at most 0.5 µg/mL and 1 µg/mL (≈ 2.2 µM). Regarding `CNc1cccc2c1[nH]c1nc(Sc3cnc4ccc[n+]([O-])c4c3)nc(N3CC(O)C3)c12` [1.17], the MIC was at most 0.5 µg/mL in the experiment with S. aureus ATCC 13709 and over 64 µg/mL in the experiment with E. coli ATCC 25922. In the case of `CNc1cccc2c1[nH]c1nc(Sc3cnc4ccc[n+]([O-])c4c3)nc(N3C[C@@H]4[C@@H](CN)[C@@H]4C3)c12` [1.18], the figures for the MIC in the experiment with S. aureus ATCC 13709 and in the experiment with E. coli ATCC 25922 were at most 0.5 µg/mL and 2 µg/mL (≈ 4.13 µM), respectively.

Take `CNc1cccc2c1[nH]c1nc(Sc3cnc4ccc[n+]([O-])c4c3)nc(N3C[C@@H]4[C@H](C3)[C@@]4(N)C(N)=O)c12` [1.19]: the MIC with S. aureus ATCC 13709 and in the experiment on E. coli ATCC 25922 was over 64 µg/mL throughout. `CNc1cccc2c1[nH]c1nc(Sc3cnc4ccc[n+]([O-])c4c3)nc(N3CC(CN)C3)c12` [1.20]: the figures for the MIC against S. aureus ATCC 13709 and against E. coli ATCC 25922 were 4 µg/mL (≈ 8.72 µM) and 16 µg/mL (≈ 34.9 µM), respectively. The corresponding values for `CNc1cccc2c1[nH]c1nc(Sc3cnc4ccc[n+]([O-])c4c3)nc(N3CC(CNC(=O)c4cn(C)nc4C(F)(F)F)C3)c12` [1.21] are at most 0.5 µg/mL and over 64 µg/mL.

As to `CNc1cccc2c1[nH]c1nc(Sc3cncc(S(=O)(=O)N(C)C)c3)nc(N3CC4C(N)C4C3)c12` (centres unmarked) [1.22], the MIC against S. aureus ATCC 13709 is 1 µg/mL (≈ 1.96 µM); against E. coli ATCC 25922, 8 µg/mL (≈ 15.7 µM).

`CNc1cccc2c1[nH]c1nc(Sc3cnc4ccc[n+]([O-])c4c3)nc(N3CC4C(N)C4C3)c12` (centres unmarked) [1.23]: the “MIC Sa” value against S. aureus ATCC 13709 is at most 0.5 µg/mL.

As for `CNc1cccc2c1[nH]c1nc(Sc3cnc4cccnc4c3)nc(N3CC4C(N)C4C3)c12` (centres unmarked) [1.24], in the experiment on S. aureus ATCC 13709, the “MIC Sa” value was at most 0.5 µg/mL. Besides, the “MIC Ec” value against E. coli ATCC 25922 was 1 µg/mL (≈ 2.2 µM).

Consider `CNc1cccc2c1[nH]c1nc(Sc3cnc4cccnc4c3)nc(N3CCC4(CC4N)C3)c12` (centres unmarked) [1.25], for which the MIC with S. aureus ATCC 13709 was at most 0.5 µg/mL. Further, the “MIC Ec” value in the experiment with E. coli ATCC 25922 is 4 µg/mL (≈ 8.54 µM).

For `CNc1cccc2c1[nH]c1nc(Sc3cnc4cccnc4c3)nc(N3CCC4(CC4N)C3)c12` (centres unmarked) [1.26], in the experiment with S. aureus ATCC 13709, the “MIC Sa” value is at most 0.5 µg/mL. In addition, the “MIC Ec” value with E. coli ATCC 25922 was 1 µg/mL (≈ 2.13 µM). Consider `CNc1cccc2c1[nH]c1nc(Sc3cnc4cccnc4c3)nc(N3CC(N)C4(CC4)C3)c12` (centres unmarked) [1.27], for which the values for the MIC against S. aureus ATCC 13709 and against E. coli ATCC 25922 were at most 0.5 µg/mL and 1 µg/mL (≈ 2.13 µM), respectively. The corresponding values for `CNc1cccc2c1[nH]c1nc(Sc3cnc4cccnc4c3)nc(N3CC4CCCNC4C3)c12` (centres unmarked) [1.28] are 4 µg/mL (≈ 8.29 µM) and 16 µg/mL (≈ 33.2 µM).

For `CNc1cccc2c1[nH]c1nc(Sc3cnc4cccnc4c3)nc(N3CC(N)C3)c12` [1.29], the MIC is 1 µg/mL (≈ 2.33 µM) in the experiment with S. aureus ATCC 13709 and over 64 µg/mL with E. coli ATCC 25922. The corresponding values for `CNc1cccc2c1[nH]c1nc(Sc3cnc4cccnc4c3)nc(N3CC4C(C3)C4(N)CO)c12` (centres unmarked) [1.30] are 16 µg/mL (≈ 33 µM) and over 64 µg/mL. The corresponding values for `CNc1cccc2c1[nH]c1nc(Sc3cc4ncccc4[n+]([O-])c3)nc(N3C[C@@H]4[C@@H](N)[C@@H]4C3)c12` [1.31] are at most 0.5 µg/mL and at most 0.5 µg/mL. As to `CNc1cccc2c1[nH]c1nc(Sc3cnc4ccc[n+]([O-])c4c3)nc(N3CC4CNC4C3)c12` (centres unmarked) [1.32], the MIC is at most 0.5 µg/mL against S. aureus ATCC 13709 and 4 µg/mL (≈ 8.5 µM) in the experiment with E. coli ATCC 25922. The corresponding values for `CNc1cccc2c1[nH]c1nc(Sc3cnc4ccc[n+]([O-])c4c3)nc(N3CC(C4(N)CC4)C3)c12` [1.33] are at most 0.5 µg/mL and 4 µg/mL (≈ 8.25 µM). The corresponding values for `CNc1cccc2c1[nH]c1nc(Sc3cnc4ccc[n+]([O-])c4c3)nc(N3CCC[C@@H](N)C3)c12` [1.34] are 1 µg/mL (≈ 2.12 µM) and 4 µg/mL (≈ 8.46 µM). As to `CNc1cccc2c1[nH]c1nc(Sc3cnc4ccc[n+]([O-])c4c3)nc(N3CC4C(N)C4C3)c12` (centres unmarked) [1.49], the “MIC Sa” value with S. aureus ATCC 13709 is at most 0.5 µg/mL. In the case of `CNc1cccc2c1[nH]c1nc(Sc3cnc4ccc[n+]([O-])c4c3)nc(N3CC4C(N)C4C3)c12` (centres unmarked) [1.71], the “MIC Sa” value in the experiment on S. aureus ATCC 13709 is at most 0.5 µg/mL.
